≈ marks a conversion by molar mass, not a printed value. Calls of active or inactive are those of the source. No cut-off for these calls is given here.
Tests used:
[1] = tested on: Enterococcus faecium; assay: Antibacterial activity against vancomycin-resistant Enterococcus faecium ATCC 51559 strain assessed as bacterial growth inhibition measured at 18 to 24 hrs by microdilution assay; format: functional; conditions: time 18-24 hrs
[2] = tested on: Pseudomonas aeruginosa; assay: Bacteriostatic activity against multidrug-resistant Pseudomonas aeruginosa CCARM 2095 measured after 24 hrs by time-kill kinetics assay; format: functional, organism-based
[3] = tested on: Pseudomonas aeruginosa; assay: Additive antibacterial activity against multidrug-resistant Pseudomonas aeruginosa CCARM 2095 strain assessed as bacterial growth inhibition by checkerboard assay; format: functional
[4] = tested on: Pseudomonas aeruginosa; assay: Antibacterial activity against multidrug-resistant Pseudomonas aeruginosa CCARM 2109 strain assessed as bacterial growth inhibition measured at 18 to 24 hrs by microdilution assay; format: functional; conditions: time 18-24 hrs
[5] = tested on: Pseudomonas aeruginosa; assay: Synergistic antibacterial activity against multidrug-resistant Pseudomonas aeruginosa CCARM 2095 strain assessed as bacterial growth inhibition by checkerboard assay; format: functional
[6] = tested on: Pseudomonas aeruginosa; assay: Bactericidal activity against multidrug-resistant Pseudomonas aeruginosa CCARM 2095 measured after 24 hrs by time-kill kinetics assay; format: functional, organism-based
[7] = tested on: Pseudomonas aeruginosa; assay: Antibacterial activity against multidrug-resistant Pseudomonas aeruginosa CCARM 2095 strain assessed as bacterial growth inhibition by checkerboard assay; format: functional
[8] = tested on: Staphylococcus aureus; assay: Antibacterial activity against methicillin-resistant Staphylococcus aureus CCARM 3090 strain assessed as bacterial growth inhibition measured at 18 to 24 hrs by microdilution assay; format: functional; conditions: time 18-24 hrs
[9] = tested on: Pseudomonas aeruginosa; assay: Antibacterial activity against multidrug-resistant Pseudomonas aeruginosa CCARM 2095 strain assessed as bacterial growth inhibition measured at 18 to 24 hrs by microdilution assay; format: functional; conditions: time 18-24 hrs
[10] = tested on: Staphylococcus aureus; assay: Antibacterial activity against methicillin-resistant Staphylococcus aureus CCARM 3095 strain assessed as bacterial growth inhibition measured at 18 to 24 hrs by microdilution assay; format: functional; conditions: time 18-24 hrs
[11] = tested on: Staphylococcus aureus; assay: Antibacterial activity against methicillin-resistant Staphylococcus aureus CCARM 3089 strain assessed as bacterial growth inhibition measured at 18 to 24 hrs by microdilution assay; format: functional; conditions: time 18-24 hrs

O=C(N[C@H](CO)[C@H](O)c1ccc([N+](=O)[O-])cc1)C(Cl)Cl [CHLORAMPHENICOL]
MIC [1]: 1.58 mM (≈ 511 µg/mL)
Activity [2]: inactive
MIC [3]: 1020 µg/mL
MIC [4]: > 6.33 mM
MIC [5]: 1020 µg/mL
Activity [6]: inactive
MIC [7]: 1020 µg/mL
MIC [8]: > 6.33 mM
MIC [9]: 6.33 mM (≈ 2040 µg/mL)
MIC [10]: > 6.33 mM
MIC [11]: 3.16 mM (≈ 1020 µg/mL)

Reference: ChEMBL document CHEMBL5331051, “Cationic, amphipathic small molecules based on a triazine-piperazine-triazine scaffold as a new class of antimicrobial agents” (Eur J Med Chem, 2022)
